Measured values taken from patent US8058258B2, “Methods for cancer therapy and stem cell modulation” (Agency for Science, Technology and Research, priority 2006, dated 2011).

Legend:
DNMT1 or DNMT3B = assay: Western blot of DNMT protein expression; type: cell-based, human; conditions: HCT116 or MCF-7 cells, 5 μM, 48 and 72 hours
Method: Cell lines used in these examples were purchased from the American Type Culture Collection (Manassas, Va.). Cells were maintained in DMEM supplemented with 10% fetal bovine serum with glutamine, penicillin, and streptomycin. For drug treatment, cells were seeded the day before the drug treatment. Cells were treated with 5 μM 3-Deazaneplanocin A or 2 μM 5-aza-2'-deoxycytidine (5-AzaC; Sigma) for 72 hours and trichostatin A (TSA; Sigma) at 100 nM for 24 hours. For co-treatment of cells with 5-AzaC and TSA, 5-Aza was added for 48 hours and followed by TSA for 24 hours. Cell pellets were first lysed in RadioImmuno Precipitation Assay (RIPA) buffer, consisting of an aqueous solution of 25 mM Tris-HCl pH 7.6, 150 mM NaCl, 1% Nonidet-P 40 (NP-40), 1% sodium deoxycholate and 0.1% sodium dodecylsulfate (SDS), before further sonicated using a tissue homogeniser to release all the proteins. Equal amounts of protein were separated on SDS-polyacrylamide gels and transferred to polyvinylidene difluoride (PVDF) membranes. The blots were probed with antibodies against: EED (07-368), SUZ12 (07-379), SUV39H1 (07-550), BMI1 (05-637), tri-methylated H3-K27 (07-449), tri-methylated H3-K9 (07-442) and Acetyl-Histone H3 (06-599), and were purchased from Upstate. EZH2 (AC22) and Histone H3 (3H1) were from Cell Signaling. […]

[1] = test system: mRNA of EZH2, SUZ12 and EED; assay: RT-PCR of mRNA levels of PRC2 proteins; type: cell-based; conditions: HCT116 cells, after 3-deazaneplanocin treatment
Method: FIG. 1B depicts the analysis of the mRNA levels of the PRC2 proteins EZH2, SUZ12, and EED by reverse transcription (RT-PCR) before (-) and after (+)3-deazaneplanocin treatment. HCT116 cells were treated as in (a) and total RNA was isolated for RT-PCR analysis GAPDH served as a control. […] Accordingly, trimethylation of histone 3 at […] In contrast, histone H3 methylation at […] (H3-K9) was not affected by 3-deazaneplanocin treatment.

[2] = test system: SUZ12 binding to PRC2 target gene promoters; assay: ChIP of SUZ12 binding to PRC2 target gene promoters; type: cell-based, human; conditions: MCF-7 cells, 5 μM, 48 hours
Method: (§1) ChIP assays were performed as described previously. […] MCF-7 cell were seeded into 6-well plates at 30% confluence and treated with or without 3-deazaneplanocin (5 μM) for 48 hours. Cells were washed once in 1× phosphate-buffered saline (PBS) and then treated with 1% formaldehyde in PBS at 37° C. for […] followed by the addition of glycine to a final concentration of 0.125 M for 5 mM. Cells were then scraped on ice and centrifuged at 1500 rpm for 5 mM at 4° C. After washing with PBS cell pellets were resuspended in 1 mL of cold lysis buffer (10 mM HEPES at pH 7.5, 1 mM EDTA at pH 8.0, 400 mM NaCl, 10% glycerol, 0.5% NP-40, 0.5 mM phenylmethylsulfonyl fluoride, and protease inhibitors [1 mM benzamidine, 3 mg/mL leupeptin, 0.1 mg/mL bacitracin, 1 mg/mL macroglobulin]) followed by centrifugation at 11,500 rpm in a microfuge for 5 min at 4° C. to remove protein not cross-linked to chromatin. The resulting pellets were then resuspended again in 1 mL of cold lysis buffer and sonicated with a Heat Systems-Ultrasonics, Inc. W-220 sonicator at 20% output for a total of 2 mM (pulsed: 30 sec on/30 sec off). The resulting solution was cleared by centrifugation at maximum speed in a microfuge for 10 mM at 4° C. At this point 5% of the solution was taken and stored at −20° C. for the input chromatin sample. […]

[3] = test system: RNA polymerase II binding to PRC2 target gene promoters; assay: ChIP of RNA Pol II binding to PRC2 target gene promoters; type: cell-based, human; conditions: MCF-7 cells, 5 μM, 48 hours
Method: as §1

Nc1nccc2c1ncn2C1C=C(CO)C(O)C1O (stereo not shown) [3-deazaneplanocin, 5-(4-amino-1H-imidazo[4,5-c]pyridin-1-yl)-3-(hydroxymethyl)-3-cyclopentene-1,2-diol]
DNMT1 or DNMT3B protein expression (DNMT1 or DNMT3B): did not cause a change | mRNA levels of each of the PRC2 proteins (RT-PCR) [1]: remained unchanged | SUZ12 binding to PRC2 target gene promoters (ChIP) [2]: markedly reduced | binding of RNA Pol II to PRC2 target gene promoters (ChIP) [3]: increased
